Assay results as given in publication PMC9484358 (Archives of Pharmacal Research, 2022).

Test system: SARS-CoV-2 spike pseudovirus
Test: organism not typed
Type: cell-based

| Compound | IC50 (read-out: IC50 value) | inhibition at 50 µM (read-out: Inhibition rate (%), 50 µM) | inhibition at 100 µM (read-out: Inhibition rate (%), 100 µM) |
| --- | --- | --- | --- |
| Cc1cc(-c2ccc(/N=N/c3ccc4c(S(=O)(=O)O)cc(S(=O)(=O)O)c(N)c4c3O)c(C)c2)ccc1/N=N/c1ccc2c(S(=O)(=O)O)cc(S(=O)(=O)O)c(N)c2c1O [Evans blue] | 26.9 µM | – | – |
| CC1(C)[C@@H](O[C@H]2O[C@H](C(=O)O)[C@@H](O)[C@H](O)[C@H]2O[C@@H]2O[C@H](C(=O)O)[C@@H](O)[C@H](O)[C@H]2O)CC[C@]2(C)[C@H]3C(=O)C=C4[C@@H]5C[C@@](C)(C(=O)O)CC[C@]5(C)CC[C@@]4(C)[C@]3(C)CC[C@@H]12 [Glycyrrhizic acid] | – | 4.01 ± 7.03% | 11.2 ± 6.96% |
